{"source": "patent US10220548B2", "about": "“Humidity activated formulation for volatile compounds” (AgroFresh, Inc., priority 2013, dated 2019)", "key": {"[1]": {"assay": "Quantification of amount of active in coating by GC", "assay_type": "physicochemical", "details": "PVOH/active/SDS coating; for % Incorporated active (compared to theoretical maximum amount): theoretical maximum 25 wt. % of active", "experimental": "The coating is peeled off the PET backer and then placed in a petri-dish in a fume-hood overnight to allow any residual non-encapsulated active to evaporate. The following day, the delaminated coating is precisely weighed into a 20 mL GC vial. 5.0 grams of DI water is added, and the vial immediately sealed. The contents of the vial are gently swirled to dissolve the coating in the water, and at least 10 hours are allowed for the headspace to equilibrate with the aqueous phase. A headspace sample is then removed by syringe for injection into the GC column."}, "[2]": {"assay": "Analysis of release of trans-2-hexenal or guaiacol from coating into headspace at 95% RH", "assay_type": "physicochemical", "details": "PVOH coating strip, room temperature/95% RH", "experimental": "(§1) Analysis of Release of trans-2-hexenal or guaiacol from Coating into Headspace: A strip of approximately 13.6 cm^2 is cut from the middle of the coated PET sheet. The coating is peeled off the PET backer and then placed in a petri-dish in a fume-hood overnight to allow any residual non-encapsulated active to evaporate. A GC vial, 20 mL, with a screw-on septum-cap is prepared at 95% humidity by adding a mini plastic ultracentrifuge vial with the cap cut off containing approximately 0.20 g of saturated potassium nitrate (KNO3) solution, with a few grains of solid KNO3 added to maintain saturation. After allowing time (at least 2 hours) for the humidity in the vial to equilibrate, the strip of coating is added to the GC vial, and the vial immediately sealed. After allowing the desired amount of time for release of the active from the coating, a headspace sample is removed by syringe for injection into the GC column. The concentration in the Headspace is determined by comparing the GC Peak Area of the sample to the GC Peak Area of the headspace from a vial containing 0.5 mL of pure trans-2-hexenal, or guaiacol."}, "[3]": {"assay": "Vapor pressure and saturated headspace concentration of pure reference compound", "assay_type": "physicochemical", "details": "for saturated headspace concentration of reference samples: pure compound 0.5 mL in vial, calculated from known vapor pressures at room temperature", "experimental": "The strips of coating are then placed inside GC headspace vials (20 mL). In some cases a droplet of water (0.10 mL) is added to the bottom of the vial (avoiding contact with the strip) before the vial is sealed, in order to generate an atmosphere of 100% relative humidity (RH).\nas §1"}, "[4]": {"details": "at 25° C.; known value; cited from earlier work"}}, "data": [{"smiles": "COc1ccccc1O", "note": "[Guaiacol, guaiacol]", "values": [{"measurement": "Absolute amount of active incorporated (wt. %)", "setting": "[1]", "value": 17.2, "unit": "% wt. %"}, {"measurement": "% Incorporated active (compared to theoretical maximum amount)", "setting": "[1]", "value": 68.7, "unit": "%"}, {"measurement": "Concentration of guaiacol in headspace (ppm)", "setting": "[2]; 0.62 hours after strip inserted into GC vial", "value": 76.17, "unit": "ppm"}, {"measurement": "Concentration of guaiacol in headspace (ppm)", "setting": "[2]; 1.2 hours", "value": 81.90, "unit": "ppm"}, {"measurement": "Concentration of guaiacol in headspace (ppm)", "setting": "[2]; 1.75 hours", "value": 80.20, "unit": "ppm"}, {"measurement": "Concentration of guaiacol in headspace (ppm)", "setting": "[2]; 3.52 hours", "value": 82.55, "unit": "ppm"}, {"measurement": "Concentration of guaiacol in headspace (ppm)", "setting": "[2]; 23.75 hours", "value": 89.52, "unit": "ppm"}, {"measurement": "saturated headspace concentration of reference samples", "setting": "[3]", "value": "145 ppm (V/V)"}]}, {"smiles": "CCC/C=C/C=O", "note": "[Trans-2-hexenal, trans-2-hexenal]", "values": [{"measurement": "Absolute amount of active incorporated (wt. %)", "setting": "[1]", "value": 18.0, "unit": "% wt. %"}, {"measurement": "% Incorporated active (compared to theoretical maximum amount)", "setting": "[1]", "value": 71.9, "unit": "%"}, {"measurement": "Concentration of trans-2-hexenal in headspace (ppm)", "setting": "[2]; 0.17 hours after strip inserted into GC vial", "value": 350.60, "unit": "ppm"}, {"measurement": "Concentration of trans-2-hexenal in headspace (ppm)", "setting": "[2]; 0.70 hours", "value": 589.45, "unit": "ppm"}, {"measurement": "Concentration of trans-2-hexenal in headspace (ppm)", "setting": "[2]; 1.25 hours", "value": 1266.50, "unit": "ppm"}, {"measurement": "Concentration of trans-2-hexenal in headspace (ppm)", "setting": "[2]; 1.78 hours", "value": 2036.63, "unit": "ppm"}, {"measurement": "Concentration of trans-2-hexenal in headspace (ppm)", "setting": "[2]; 2.33 hours", "value": 3484.15, "unit": "ppm"}, {"measurement": "Concentration of trans-2-hexenal in headspace (ppm)", "setting": "[2]; 2.87 hours", "value": 4541.25, "unit": "ppm"}, {"measurement": "Concentration of trans-2-hexenal in headspace (ppm)", "setting": "[2]; 3.42 hours", "value": 6173.40, "unit": "ppm"}, {"measurement": "Concentration of trans-2-hexenal in headspace (ppm)", "setting": "[2]; 4.52 hours", "value": 7357.28, "unit": "ppm"}, {"measurement": "Concentration of trans-2-hexenal in headspace (ppm)", "setting": "[2]; 17.77 hours", "value": 6742.25, "unit": "ppm"}, {"measurement": "saturated headspace concentration of reference samples", "setting": "[3]", "value": "8685 ppm (V/V)"}]}, {"smiles": "CCCCCCO", "note": "[Formulation 1-Hexanol, 1-hexanol]", "values": [{"measurement": "% Incorporated active (compared to theoretical maximum amount)", "setting": "[1]", "value": 75.0, "unit": "%"}, {"measurement": "saturated concentration in the headspace of reference vial", "setting": "[3]; pure compound 0.50 mL in vial, calculated from known vapor pressure at 25° C.", "value": 1224, "unit": "ppm"}, {"measurement": "vapor pressure", "setting": "[4]", "value": 0.124, "unit": "kPa"}]}]}
